Where “and” joins values, the source holds several entries; their conditions need not be identical. Identical values can stand only once.
System: Swiss mice, Sarcoma 180 sc, mean tumor weight T/C
Experiment: NCI In Vivo Anticancer Drug Screen. Data for tumor model Sarcoma 180 (subcutaneous) in Swiss mice
Settings: endpoint: mean tumor weight, higher = larger tumour
Outline: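 T/C ratio: treated over vehicle-treated controls, measuring survival or tumor size in transplanted-tumor mice.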

[1] = dose: 75.0 mg/kg/injection, schedule: Q01DX007 (ip), vehicle: carboxymethylcellulose (CMC)
[2] = dose: 37.5 mg/kg/injection, schedule: Q01DX007 (ip), vehicle: carboxymethylcellulose (CMC)

COC(=O)CC(C(=O)C=[N+]=[N-])N1C(=O)c2ccccc2C1=O (centres undefined)
T/C (dose: 0.03 mg/kg/injection, schedule: Q01DX007 (ip), vehicle: carboxymethylcellulose (CMC)): 112 % of control | T/C (dose: 0.05 mg/kg/injection, schedule: Q01DX007 (ip), vehicle: carboxymethylcellulose (CMC)): 89 % of control | T/C (dose: 0.1 mg/kg/injection, schedule: Q01DX007 (ip), vehicle: carboxymethylcellulose (CMC)): 101 % of control | T/C (dose: 0.2 mg/kg/injection, schedule: Q01DX007 (ip), vehicle: carboxymethylcellulose (CMC)): 95 % of control and 102 % of control | T/C (dose: 0.4 mg/kg/injection, schedule: Q01DX007 (ip), vehicle: carboxymethylcellulose (CMC)): 115 % of control | T/C (dose: 0.8 mg/kg/injection, schedule: Q01DX007 (ip), vehicle: carboxymethylcellulose (CMC)): 88 % of control and 91 % of control | T/C (dose: 3.2 mg/kg/injection, schedule: Q01DX007 (ip), vehicle: carboxymethylcellulose (CMC)): 99 % of control | T/C (dose: 6.4 mg/kg/injection, schedule: Q01DX007 (ip), vehicle: carboxymethylcellulose (CMC)): 70 % of control and 83 % of control | T/C (dose: 12.8 mg/kg/injection, schedule: Q01DX007 (ip), vehicle: carboxymethylcellulose (CMC)): 87 % of control | T/C (dose: 25.6 mg/kg/injection, schedule: Q01DX007 (ip), vehicle: carboxymethylcellulose (CMC)): 84 % of control

O=CNc1c(Br)cc2c(c1Br)Cc1cc([N+](=O)[O-])ccc1-2
T/C (dose: 7.0 mg/kg/injection, schedule: Q01DX007 (ip), vehicle: carboxymethylcellulose (CMC)): 52 % of control | T/C (dose: 11.0 mg/kg/injection, schedule: Q01DX007 (ip), vehicle: carboxymethylcellulose (CMC)): 45 % of control | T/C (dose: 17.0 mg/kg/injection, schedule: Q01DX007 (ip), vehicle: carboxymethylcellulose (CMC)): 40 % of control | T/C (dose: 26.0 mg/kg/injection, schedule: Q01DX007 (ip), vehicle: carboxymethylcellulose (CMC)): 22 % of control

NN1CCCC1
T/C (dose: 33.0 mg/kg/injection, schedule: Q01DX007 (ip), vehicle: carboxymethylcellulose (CMC)): 86 % of control | T/C (dose: 33.0 mg/kg/injection, schedule: Q01DX007 (ip), vehicle: saline): 161 % of control | T/C (dose: 50.0 mg/kg/injection, schedule: Q01DX007 (ip), vehicle: carboxymethylcellulose (CMC)): 71 % of control | T/C (dose: 50.0 mg/kg/injection, schedule: Q01DX007 (ip), vehicle: saline): 179 % of control | T/C [1]: 20 % of control | T/C (dose: 75.0 mg/kg/injection, schedule: Q01DX007 (ip), vehicle: saline): 86 % of control | T/C (dose: 113.0 mg/kg/injection, schedule: Q01DX007 (ip), vehicle: saline): 70 % of control | T/C (dose: 133.0 mg/kg/injection, schedule: Q01DX007 (ip), vehicle: saline): 55 % of control | T/C (dose: 200.0 mg/kg/injection, schedule: Q01DX007 (ip), vehicle: saline): 36 % of control

COc1cc2c3c(c4cc(OC)c(OC)cc4c2cc1OC)CN1CCC[C@H]1C3
T/C (dose: 10.0 mg/kg/injection, schedule: Q01DX007 (ip), vehicle: water): 70 % of control | T/C (dose: 12.0 mg/kg/injection, schedule: Q01DX007 (ip), vehicle: water): 81 % of control | T/C (dose: 18.0 mg/kg/injection, schedule: Q01DX007 (ip), vehicle: water): 42 % of control

Cc1cc(N=C2C=CC(=O)C=C2)c(C(C)C)cc1O
T/C (dose: 200.0 mg/kg/injection, schedule: Q01DX007 (ip), vehicle: other): 52 % of control | T/C (dose: 300.0 mg/kg/injection, schedule: Q01DX007 (ip), vehicle: other): 61 % of control | T/C (dose: 450.0 mg/kg/injection, schedule: Q01DX007 (ip), vehicle: other): 59 % of control | T/C (dose: 600.0 mg/kg/injection, schedule: Q01DX007 (ip), vehicle: other): 53 % of control

Cc1ccc2[nH]c(C)c(CCN)c2c1
T/C (dose: 44.0 mg/kg/injection, schedule: Q01DX007 (ip), vehicle: water): 95 % of control | T/C (dose: 66.0 mg/kg/injection, schedule: Q01DX007 (ip), vehicle: water): 119 % of control | T/C (dose: 100.0 mg/kg/injection, schedule: Q01DX007 (ip), vehicle: water): 97 % of control

N#[N+]c1nc2ncnc(N)c2[nH]1
T/C (dose: 6.25 mg/kg/injection, schedule: Q#A X014 (ip), vehicle: saline): 66 % of control | T/C (dose: 12.5 mg/kg/injection, schedule: Q#A X014 (ip), vehicle: saline): 65 % of control | T/C (dose: 25.0 mg/kg/injection, schedule: Q#A X014 (ip), vehicle: saline): 86 % of control

O=NN1CCN(N=O)CC1
T/C (dose: 5.06 mg/kg/injection, schedule: Q#A X014 (ip), vehicle: carboxymethylcellulose (CMC)): 100 % of control | T/C (dose: 20.25 mg/kg/injection, schedule: Q#A X014 (ip), vehicle: carboxymethylcellulose (CMC)): 101 % of control | T/C (dose: 40.5 mg/kg/injection, schedule: Q#A X014 (ip), vehicle: carboxymethylcellulose (CMC)): 88 % of control

Cc1cc2nc3c(=O)[nH]c(=O)nc-3n(CCO)c2cc1C
T/C (dose: 60.0 mg/kg/injection, schedule: Q#A X014 (ip), vehicle: carboxymethylcellulose (CMC)): 78 % of control | T/C (dose: 120.0 mg/kg/injection, schedule: Q#A X014 (ip), vehicle: carboxymethylcellulose (CMC)): 77 % of control | T/C (dose: 240.0 mg/kg/injection, schedule: Q#A X014 (ip), vehicle: carboxymethylcellulose (CMC)): 76 % of control | T/C (dose: 384.0 mg/kg/injection, schedule: Q01DX007 (ip), vehicle: carboxymethylcellulose (CMC)): 61 % of control | T/C (dose: 480.0 mg/kg/injection, schedule: Q01DX007 (ip), vehicle: carboxymethylcellulose (CMC)): 62 % of control | T/C (dose: 480.0 mg/kg/injection, schedule: Q#A X014 (ip), vehicle: carboxymethylcellulose (CMC)): 40 % of control | T/C (dose: 640.0 mg/kg/injection, schedule: Q01DX007 (ip), vehicle: carboxymethylcellulose (CMC)): 82 % of control | T/C (dose: 960.0 mg/kg/injection, schedule: Q01DX007 (ip), vehicle: carboxymethylcellulose (CMC)): 66 % of control

O=C(O)C(=O)O.[U]
T/C (dose: 1.5 mg/kg/injection, schedule: Q01DX007 (ip), vehicle: saline): 85 % of control | T/C (dose: 3.0 mg/kg/injection, schedule: Q01DX007 (ip), vehicle: saline): 79 % of control | T/C (dose: 6.0 mg/kg/injection, schedule: Q01DX007 (ip), vehicle: saline): 82 % of control | T/C (dose: 18.5 mg/kg/injection, schedule: Q01DX007 (ip), vehicle: saline): 32 % of control | T/C (dose: 27.8 mg/kg/injection, schedule: Q01DX007 (ip), vehicle: saline): 33 % of control and 42 % of control | T/C (dose: 41.7 mg/kg/injection, schedule: Q01DX007 (ip), vehicle: saline): 41 % of control | T/C (dose: 62.5 mg/kg/injection, schedule: Q01DX007 (ip), vehicle: saline): 35 % of control | T/C (dose: 93.8 mg/kg/injection, schedule: Q01DX007 (ip), vehicle: saline): 39 % of control

NC(=O)c1[nH]cnc1/N=N/N1CCCC1
T/C (dose: 62.5 mg/kg/injection, schedule: Q#A X014 (ip), vehicle: carboxymethylcellulose (CMC)): 73 % of control | T/C (dose: 125.0 mg/kg/injection, schedule: Q#A X014 (ip), vehicle: carboxymethylcellulose (CMC)): 107 % of control

O=C(O)Cc1ccc(C2CCCCC2)cc1
T/C [2]: 120 % of control | T/C [1]: 115 % of control | T/C (dose: 150.0 mg/kg/injection, schedule: Q01DX007 (ip), vehicle: carboxymethylcellulose (CMC)): 80 % of control | T/C (dose: 300.0 mg/kg/injection, schedule: Q01DX007 (ip), vehicle: carboxymethylcellulose (CMC)): 70 % of control and 75 % of control | T/C (dose: 600.0 mg/kg/injection, schedule: Q01DX007 (ip), vehicle: carboxymethylcellulose (CMC)): 67 % of control

CCc1nc(N)nc(N)c1-c1ccc(Cl)c(Cl)c1.[Cl][Pd][Cl]
T/C (dose: 6.6 mg/kg/injection, schedule: Q01DX007 (ip), vehicle: carboxymethylcellulose (CMC)): 95 % of control | T/C (dose: 8.0 mg/kg/injection, schedule: Q01DX007 (ip), vehicle: methylcellulose (MC)): 111 % of control | T/C (dose: 10.0 mg/kg/injection, schedule: Q01DX007 (ip), vehicle: carboxymethylcellulose (CMC)): 49 % of control | T/C (dose: 15.0 mg/kg/injection, schedule: Q01DX007 (ip), vehicle: carboxymethylcellulose (CMC)): 35 % of control | T/C (dose: 15.0 mg/kg/injection, schedule: Q01DX007 (ip), vehicle: methylcellulose (MC)): 55 % of control | T/C (dose: 22.5 mg/kg/injection, schedule: Q01DX007 (ip), vehicle: carboxymethylcellulose (CMC)): 34 % of control | T/C (dose: 30.0 mg/kg/injection, schedule: Q01DX007 (ip), vehicle: methylcellulose (MC)): 51 % of control

NC(=O)c1n[se]nc1N
T/C (dose: 1.0 mg/kg/injection, schedule: Q01DX007 (ip), vehicle: carboxymethylcellulose (CMC)): 65 % of control | T/C (dose: 2.0 mg/kg/injection, schedule: Q01DX007 (ip), vehicle: carboxymethylcellulose (CMC)): 99 % of control

CCCCCCCCCCCCCCCCC(C(=O)O)C(O)(CC(=O)O)C(=O)O (centres undefined)
T/C (dose: 19.0 mg/kg/injection, schedule: Q01DX007 (ip), vehicle: carboxymethylcellulose (CMC)): 81 % of control | T/C [2]: 104 % of control | T/C [1]: 91 % of control
